One test deals with CCRF-CEM. The test can be described thus: Cytotoxicity against human CCRF-CEM cells assessed as reduction in cell growth. It counts as functional, cell-based.
A further test has as its system KB 3-1. The test can be described thus: Cytotoxicity against human KB-3-1 cells assessed as inhibition of cell growth. It counts as functional, cell-based.
For the next test, the target named is Tubulin. Put plainly: Binding affinity to tubulin (unknown origin) assessed as dissociation constant by SPR analysis. It counts as protein-complex assay, Homo sapiens.
Test [1] is described as follows: Cytotoxicity against human L540cy assessed as reduction in cell growth incubated for 4 days by CellTiter-Glo assay. It counts as functional, cell-based. Conditions: 96 h.
The subject of another test is KB. The test can be described thus: Cytotoxicity against human KB cells assessed as reduction in cell viability. It counts as functional, cell-based.
The test system of a further test is LoVo. The test can be described thus: Cytotoxicity against human LoVo cells. It counts as functional, cell-based.

Take `COc1ccc(C[C@H]2NC(=O)/C=C/C[C@@H]([C@H](C)[C@H]3O[C@H]3c3ccc(F)cc3)OC(=O)[C@H](CC(C)C)OC(=O)C(C)(C)CNC2=O)cc1Cl`: the IC50 in the test on CCRF-CEM was determined as 33 pM.

In the case of `COc1ccc(C[C@H]2NC(=O)/C=C/C[C@@H]([C@H](C)[C@H]3O[C@H]3c3ccccc3)OC(=O)[C@H](CC(C)C)OC(=O)C(C)(C)CNC2=O)cc1Cl`, the IC50 in the test on KB 3-1 was 15 pM. Besides, the Kd on Tubulin was found to be 47000 pM.

As for `CC[C@@]1(O)C(=O)OCc2c1cc1n(c2=O)Cc2cc3c(CN)c4c(cc3nc2-1)OCO4`, the IC50 in test [1] stood at 1000 pM.

With `COc1ccc(C[C@H]2NC(=O)/C=C/C[C@@H]([C@H](C)[C@H]3O[C@H]3c3ccccc3)OC(=O)[C@H](CC(C)C)OC(=O)[C@H](C)CNC2=O)cc1Cl` [CRYPTOPHYCIN 39], the results for the IC50 in the test with KB and with LoVo were 4.58 pM and 7.63 pM, respectively.

For the origin of these results see ChEMBL document CHEMBL5500328, “Comprehensive review on the elaboration of payloads derived from natural products for antibody-drug conjugates” (Eur J Med Chem, 2024).
